Results from publication PMC5218480 (PLoS ONE, 2017).

Tested on: MV-4-11 cells
Assay: Gene expression microarray analysis (Affymetrix PrimeView) and GSEA
Type: cell-based, human
Set-up: RFU PODN (11730768_x_at) / Fold change /veh PODN (11730768_x_at) / RFU LINC00158 (11744669_a_at) / Fold change /veh LINC00158 (11744669_a_at) / RFU DUSP10 (11751237_a_at) / Fold change /veh DUSP10 (11751237_a_at) / RFU ID3 (11757404_x_at) / Fold change /veh ID3 (11757404_x_at) / RFU PLEKHG5 (11737974_s_at) / Fold change /veh PLEKHG5 (11737974_s_at) / RFU LRRC4B (11730491_at) / Fold change /veh LRRC4B (11730491_at) / RFU GIMAP4 (11747438_a_at) / Fold change /veh GIMAP4 (11747438_a_at) / RFU KRT8 (11758183_x_at) / Fold change /veh KRT8 (11758183_x_at) / RFU CNN1 (11734310_a_at) / Fold change /veh CNN1 (11734310_a_at) / RFU VPS37D (11726825_at) / Fold change /veh VPS37D (11726825_at) / RFU C10orf10 (11716522_x_at) / Fold change /veh C10orf10 (11716522_x_at) / RFU KIR2DL2 /// KIR2DL4 /// KIR2DL5A /// KIR2DL5B /// KIR2DS1 /// KIR2DS2 /// KIR2DS3 /// KIR2DS4 /// KIR3DL3 /// KIR3DL3 /// KIR3DS1 (11738374_at) / Fold change /veh KIR2DL2 /// KIR2DL4 /// KIR2DL5A /// KIR2DL5B /// KIR2DS1 /// KIR2DS2 /// KIR2DS3 /// KIR2DS4 /// KIR3DL3 /// KIR3DL3 /// KIR3DS1 (11738374_at) / RFU C1QL1 (11718748_at) / Fold change /veh C1QL1 (11718748_at) / RFU TMPRSS4 (11747572_a_at) / Fold change /veh TMPRSS4 (11747572_a_at) / RFU HAMP (11756126_x_at) / Fold change /veh HAMP (11756126_x_at) / RFU RNFT2 (11725882_a_at) / Fold change /veh RNFT2 (11725882_a_at) / RFU NR4A2 (11747474_a_at) / Fold change /veh NR4A2 (11747474_a_at) / RFU ABCC12 (11746883_a_at) / Fold change /veh ABCC12 (11746883_a_at) / RFU TMEM136 (11760407_x_at) / Fold change /veh TMEM136 (11760407_x_at) / RFU CLDN22 /// WWC2 (11732394_at) / Fold change /veh CLDN22 /// WWC2 (11732394_at) / RFU HLA-DPB1 (11760878_x_at) / Fold change /veh HLA-DPB1 (11760878_x_at) / RFU SPINT1 (11716480_a_at) / Fold change /veh SPINT1 (11716480_a_at) / RFU GAP43 (11754022_s_at) / Fold change /veh GAP43 (11754022_s_at) / RFU A4GNT (11735810_at) / Fold change /veh A4GNT (11735810_at) / RFU PRB3 (11715151_x_at) / Fold change /veh PRB3 (11715151_x_at) / RFU TUBB4B (11761932_at) / Fold change /veh TUBB4B (11761932_at) / RFU CAPN14 (11732068_a_at) / Fold change /veh CAPN14 (11732068_a_at) / RFU TMCC2 (11721928_a_at) / Fold change /veh TMCC2 (11721928_a_at) / RFU IRGQ (11745062_a_at) / Fold change /veh IRGQ (11745062_a_at) / RFU FAM174B (11720279_a_at) / Fold change /veh FAM174B (11720279_a_at) / RFU TMPRSS4 (11748680_a_at) / Fold change /veh TMPRSS4 (11748680_a_at) / RFU FAM212B (11763350_a_at) / Fold change /veh FAM212B (11763350_a_at) / RFU PLEKHG5 (11743358_a_at) / Fold change /veh PLEKHG5 (11743358_a_at) / RFU ZSCAN30 (11745921_a_at) / Fold change /veh ZSCAN30 (11745921_a_at) / RFU CMKLR1 (11741424_a_at) / Fold change /veh CMKLR1 (11741424_a_at) / RFU LOC101060620 /// MAPK8IP1 (11723275_at) / Fold change /veh LOC101060620 /// MAPK8IP1 (11723275_at) / RFU SPTSSB (11747773_x_at) / Fold change /veh SPTSSB (11747773_x_at) / RFU PRSS12 (11739890_at) / Fold change /veh PRSS12 (11739890_at) / RFU BIN1 (11741810_x_at) / Fold change /veh BIN1 (11741810_x_at) / RFU WNT11 (11732464_a_at) / Fold change /veh WNT11 (11732464_a_at) / RFU C10orf10 (11716521_a_at) / Fold change /veh C10orf10 (11716521_a_at) / RFU C5orf56 (11738089_at) / Fold change /veh C5orf56 (11738089_at) / RFU CYB561 (11721691_x_at) / Fold change /veh CYB561 (11721691_x_at) / RFU ANKRD19P (11752326_a_at) / Fold change /veh ANKRD19P (11752326_a_at) / RFU OR2T12 /// OR2T33 /// OR2T8 (11738714_s_at) / Fold change /veh OR2T12 /// OR2T33 /// OR2T8 (11738714_s_at) / RFU VCAN (11748164_a_at) / Fold change /veh VCAN (11748164_a_at) / RFU JSRP1 (11732532_at) / Fold change /veh JSRP1 (11732532_at) / RFU KRTAP10-11 (11738290_x_at) / Fold change /veh KRTAP10-11 (11738290_x_at) / RFU MYO3A (11730013_a_at) / Fold change /veh MYO3A (11730013_a_at) / RFU EBF3 (11725865_a_at) / Fold change /veh EBF3 (11725865_a_at) / RFU CAMK2N1 (11719241_x_at) / Fold change /veh CAMK2N1 (11719241_x_at) / RFU C5orf56 (11738088_a_at) / Fold change /veh C5orf56 (11738088_a_at) / RFU OLFML3 (11715873_a_at) / Fold change /veh OLFML3 (11715873_a_at) / RFU LOC100653217 /// NTM (11731650_a_at) / Fold change /veh LOC100653217 /// NTM (11731650_a_at) / RFU MAPK11 (11762145_a_at) / Fold change /veh MAPK11 (11762145_a_at) / RFU FIZ1 (11724087_x_at) / Fold change /veh FIZ1 (11724087_x_at) / RFU OASL (11726364_x_at) / Fold change /veh OASL (11726364_x_at) / RFU SOX15 (11748057_x_at) / Fold change /veh SOX15 (11748057_x_at) / RFU CD79A (11719716_a_at) / Fold change /veh CD79A (11719716_a_at) / RFU HIST1H1D (11736915_at) / Fold change /veh HIST1H1D (11736915_at) / RFU CASKIN2 (11723855_a_at) / Fold change /veh CASKIN2 (11723855_a_at) / RFU LOC730098 (11760151_x_at) / Fold change /veh LOC730098 (11760151_x_at) / RFU OR4N2 (11742367_at) / Fold change /veh OR4N2 (11742367_at) / RFU PRRT2 (11749266_a_at) / Fold change /veh PRRT2 (11749266_a_at) / RFU SNX32 (11753110_a_at) / Fold change /veh SNX32 (11753110_a_at) / RFU CDHR5 (11726645_a_at) / Fold change /veh CDHR5 (11726645_a_at) / RFU RCAN1 (11760418_a_at) / Fold change /veh RCAN1 (11760418_a_at) / RFU FAM167A (11723789_a_at) / Fold change /veh FAM167A (11723789_a_at) / RFU FAM26E (11764081_at) / Fold change /veh FAM26E (11764081_at) / RFU ISYNA1 (11749810_s_at) / Fold change /veh ISYNA1 (11749810_s_at) / RFU ACY1 (11761880_at) / Fold change /veh ACY1 (11761880_at) / RFU 11764098_at / Fold change /veh 11764098_at / RFU SAMD14 (11745864_x_at) / Fold change /veh SAMD14 (11745864_x_at) / RFU NPB (11741838_a_at) / Fold change /veh NPB (11741838_a_at) / RFU TMPRSS6 (11731388_a_at) / Fold change /veh TMPRSS6 (11731388_a_at) / RFU KRTAP10-2 (11738614_at) / Fold change /veh KRTAP10-2 (11738614_at) / RFU ARHGAP8 /// PRR5-ARHGAP8 (11727945_x_at) / Fold change /veh ARHGAP8 /// PRR5-ARHGAP8 (11727945_x_at) / RFU KRTAP5-7 /// NADSYN1 (11734609_at) / Fold change /veh KRTAP5-7 /// NADSYN1 (11734609_at) / RFU RASL12 (11751679_a_at) / Fold change /veh RASL12 (11751679_a_at) / RFU CDKN2B (11736163_a_at) / Fold change /veh CDKN2B (11736163_a_at) / RFU PRF1 (11729649_at) / Fold change /veh PRF1 (11729649_at) / RFU, ZNF638 /// ZNF638-IT1 / Fold change vs veh, ZNF638 /// ZNF638-IT1 / RFU, PANK3 / Fold change vs veh, PANK3 / RFU, SH3YL1 / Fold change vs veh, SH3YL1 / RFU, ZEB2 / Fold change vs veh, ZEB2 / RFU, NRIP1 / Fold change vs veh, NRIP1 / RFU, PTTG1IP / Fold change vs veh, PTTG1IP / RFU, CAPN2 / Fold change vs veh, CAPN2 / RFU, MED14 / Fold change vs veh, MED14 / RFU, SNORA58 / Fold change vs veh, SNORA58 / RFU, C1orf63 / Fold change vs veh, C1orf63 / RFU, LRRFIP1 / Fold change vs veh, LRRFIP1 / RFU, NDUFAF7 / Fold change vs veh, NDUFAF7 / RFU, SLC12A2 / Fold change vs veh, SLC12A2 / RFU, IBTK / Fold change vs veh, IBTK / RFU, ESF1 / Fold change vs veh, ESF1 / Fold change vs veh, TMEM50B / RFU, TAOK1 / Fold change vs veh, TAOK1 / RFU, ACBD3 / Fold change vs veh, ACBD3 / RFU, TMA16 / Fold change vs veh, TMA16 / RFU, RWDD3 / Fold change vs veh, RWDD3 / RFU, BCAT1 / Fold change vs veh, BCAT1 / RFU, EDEM3 / Fold change vs veh, EDEM3 / RFU, TMEM33 / Fold change vs veh, TMEM33 / RFU, WDR75 / Fold change vs veh, WDR75 / RFU, AHCTF1 / Fold change vs veh, AHCTF1 / RFU, TFRC / Fold change vs veh, TFRC / RFU, ZDHHC17 / Fold change vs veh, ZDHHC17 / RFU, NOM1 / Fold change vs veh, NOM1 / RFU, ARL8B / Fold change vs veh, ARL8B / RFU, ZBTB11 / Fold change vs veh, ZBTB11 / RFU, TAMM41 / Fold change vs veh, TAMM41 / RFU, KIAA1704 /// LOC100996395 / Fold change vs veh, KIAA1704 /// LOC100996395 / RFU, ING1 / Fold change vs veh, ING1 / RFU, TRMT61B / Fold change vs veh, TRMT61B / RFU, FUBP3 / Fold change vs veh, FUBP3 / RFU, TP53 / Fold change vs veh, TP53 / RFU, TNKS2 / Fold change vs veh, TNKS2 / RFU, ZFP14 / Fold change vs veh, ZFP14 / RFU, ACTR2 / Fold change vs veh, ACTR2 / RFU, PPP3R1 / Fold change vs veh, PPP3R1 / RFU, PIK3R1 / Fold change vs veh, PIK3R1 / RFU, HNRNPA1 / Fold change vs veh, HNRNPA1 / RFU, RNF170 / Fold change vs veh, RNF170 / RFU, ZNF28 / Fold change vs veh, ZNF28 / RFU, RNGTT / Fold change vs veh, RNGTT / RFU, OGT / Fold change vs veh, OGT / RFU, BRD1 / Fold change vs veh, BRD1 / RFU, MARS / Fold change vs veh, MARS / RFU, ZNF655 / Fold change vs veh, ZNF655 / RFU, FAHD1 / Fold change vs veh, FAHD1 / RFU, BDP1 / Fold change vs veh, BDP1 / RFU, LRRCC1 / Fold change vs veh, LRRCC1 / RFU, ARID1A / Fold change vs veh, ARID1A / RFU, ZNF146 / Fold change vs veh, ZNF146 / RFU, ZNF330 / Fold change vs veh, ZNF330 / RFU, GPN3 / Fold change vs veh, GPN3 / RFU, C9orf123 / Fold change vs veh, C9orf123 / RFU, N4BP2L2 / Fold change vs veh, N4BP2L2 / RFU, ARFIP1 / Fold change vs veh, ARFIP1 / RFU, FAM179B / Fold change vs veh, FAM179B / RFU, BCL10 / Fold change vs veh, BCL10 / RFU, UHRF1BP1L / Fold change vs veh, UHRF1BP1L / RFU, BET1 / Fold change vs veh, BET1 / RFU, CNOT2 / Fold change vs veh, CNOT2 / RFU, ZNF268 / Fold change vs veh, ZNF268 / Fold change vs veh, ZNF507 / RFU, DGCR2 / Fold change vs veh, DGCR2 / RFU, WDSUB1 / Fold change vs veh, WDSUB1 / Fold change vs veh, HSP90B1 /// MIR3652 / RFU, ADSS / Fold change vs veh, ADSS / RFU, GK / Fold change vs veh, GK / RFU, ZNF148 / Fold change vs veh, ZNF148 / RFU, TAF9 / Fold change vs veh, TAF9 / RFU, SLC1A5 / Fold change vs veh, SLC1A5 / RFU, SLMO2 / Fold change vs veh, SLMO2 / RFU, ABCC4 / Fold change vs veh, ABCC4 / RFU, LOC101060439 /// RAP1B / Fold change vs veh, LOC101060439 /// RAP1B / RFU, RFX7 / Fold change vs veh, RFX7 / RFU, GTPBP10 / Fold change vs veh, GTPBP10 / RFU, CNEP1R1 / Fold change vs veh, CNEP1R1 / RFU, BIVM-ERCC5 /// ERCC5 / Fold change vs veh, BIVM-ERCC5 /// ERCC5 / RFU, ILF3 / Fold change vs veh, ILF3 / RFU 11762660_at / Fold change /veh 11762660_at / RFU VCAN (11757783_s_at) / Fold change /veh VCAN (11757783_s_at) / RFU DDX43 (11728927_at) / Fold change /veh DDX43 (11728927_at) / RFU KRT8 (11758188_x_at) / Fold change /veh KRT8 (11758188_x_at) / RFU NKD1 (11759106_at) / Fold change /veh NKD1 (11759106_at) / RFU SRD5A1 (11742802_a_at) / Fold change /veh SRD5A1 (11742802_a_at) / RFU TPSAB1 /// TPSB2 (11721975_s_at) / Fold change /veh TPSAB1 /// TPSB2 (11721975_s_at) / RFU GSTM3 (11746129_a_at) / Fold change /veh GSTM3 (11746129_a_at) / RFU IL23R (11737362_x_at) / Fold change /veh IL23R (11737362_x_at) / RFU TMEM51 (11727254_a_at) / Fold change /veh TMEM51 (11727254_a_at) / RFU PIWIL2 (11732686_x_at) / Fold change /veh PIWIL2 (11732686_x_at) / RFU ORM1 (11744905_x_at) / Fold change /veh ORM1 (11744905_x_at) / RFU CCDC152 (11743942_at) / Fold change /veh CCDC152 (11743942_at) / RFU ECM1 (11717891_a_at) / Fold change /veh ECM1 (11717891_a_at) / RFU IL23R (11748794_a_at) / Fold change /veh IL23R (11748794_a_at) / RFU TNFAIP8L3 (11732012_x_at) / Fold change /veh TNFAIP8L3 (11732012_x_at) / RFU MBOAT4 (11741988_at) / Fold change /veh MBOAT4 (11741988_at) / RFU 11764193_at / Fold change /veh 11764193_at / RFU TMEM53 (11763286_at) / Fold change /veh TMEM53 (11763286_at) / RFU MAGEB2 (11727129_at) / Fold change /veh MAGEB2 (11727129_at) / RFU TMEM200A (11744735_a_at) / Fold change /veh TMEM200A (11744735_a_at) / RFU CCDC152 (11751479_a_at) / Fold change /veh CCDC152 (11751479_a_at) / RFU FAM211A (11726209_a_at) / Fold change /veh FAM211A (11726209_a_at) / RFU RGS16 (11746705_a_at) / Fold change /veh RGS16 (11746705_a_at) / RFU VCAN (11755009_s_at) / Fold change /veh VCAN (11755009_s_at) / RFU RHOB (11743442_s_at) / Fold change /veh RHOB (11743442_s_at) / RFU RGS16 (11720943_a_at) / Fold change /veh RGS16 (11720943_a_at) / RFU RGS16 (11720944_at) / Fold change /veh RGS16 (11720944_at) / RFU, VPS4B / Fold change vs veh, VPS4B / RFU, CREB1 / Fold change vs veh, CREB1 / RFU, DNAJC13 / Fold change vs veh, DNAJC13 / RFU, GNAQ / Fold change vs veh, GNAQ / RFU, CDK5R1 / Fold change vs veh, CDK5R1 / RFU, ZRANB3 / Fold change vs veh, ZRANB3 / RFU, CUL4A / Fold change vs veh, CUL4A / RFU, CCNY / Fold change vs veh, CCNY / RFU, UFL1 / Fold change vs veh, UFL1 / RFU, COG3 / Fold change vs veh, COG3 / RFU, DIAPH2 / Fold change vs veh, DIAPH2 / RFU, SKA2 / Fold change vs veh, SKA2 / RFU, AFF3 / Fold change vs veh, AFF3 / RFU, LMF1 / Fold change vs veh, LMF1 / RFU, IPO11 / Fold change vs veh, IPO11 / RFU, DFFB / Fold change vs veh, DFFB / RFU, FOXP1 / Fold change vs veh, FOXP1 / RFU, CARD8 / Fold change vs veh, CARD8 / RFU, STRN3 / Fold change vs veh, STRN3 / RFU, ADK / Fold change vs veh, ADK / RFU, RASSF2 / Fold change vs veh, RASSF2 / RFU, WIPF1 / Fold change vs veh, WIPF1 / RFU, LARP1B / Fold change vs veh, LARP1B / RFU, RASA1 / Fold change vs veh, RASA1 / RFU, RB1 / Fold change vs veh, RB1 / RFU, PPFIA1 / Fold change vs veh, PPFIA1 / RFU, MAT2A / Fold change vs veh, MAT2A / RFU, CCT5 / Fold change vs veh, CCT5 / RFU, WDR92 / Fold change vs veh, WDR92 / RFU, CUX1 / Fold change vs veh, CUX1 / RFU, TTC7A / Fold change vs veh, TTC7A / RFU, TMEM135 / Fold change vs veh, TMEM135 / RFU, DEPTOR / Fold change vs veh, DEPTOR / RFU, CPM / Fold change vs veh, CPM / RFU, DNAJB6 / Fold change vs veh, DNAJB6 / RFU, CACNA2D3 / Fold change vs veh, CACNA2D3 / RFU, DTX4 / Fold change vs veh, DTX4 / RFU, TFCP2 / Fold change vs veh, TFCP2 / RFU, GMCL1 /// GMCL1P1 / Fold change vs veh, GMCL1 /// GMCL1P1 / RFU, AEBP2 / Fold change vs veh, AEBP2 / RFU, SNHG1 /// SNORD22 /// SNORD25 /// SNORD26 /// SNORD27 /// SNORD28 /// SNORD29 /// SNORD31 / Fold change vs veh, SNHG1 /// SNORD22 /// SNORD25 /// SNORD26 /// SNORD27 /// SNORD28 /// SNORD29 /// SNORD31 / Fold change (Aza/veh), C12orf56 (ProbeSet 11735607_a_at) / Fold change (ACY-1035/veh), C12orf56 (ProbeSet 11735607_a_at) / Fold change (Aza/veh), FGFR1OP (ProbeSet 11751329_s_at) / Fold change (ACY-1035/veh), FGFR1OP (ProbeSet 11751329_s_at) / Fold change (Aza/veh), VPS36 (ProbeSet 11739960_a_at) / Fold change (ACY-1035/veh), VPS36 (ProbeSet 11739960_a_at) / RFU SYPL1 (11715823_x_at) / Fold change /veh SYPL1 (11715823_x_at) / RFU IGFBP7 (11715501_s_at) / Fold change /veh IGFBP7 (11715501_s_at) / RFU REEP3 (11722064_at) / Fold change /veh REEP3 (11722064_at) / RFU IGLL1 (11728026_x_at) / Fold change /veh IGLL1 (11728026_x_at): dose or concentration left out as unconfirmed
Settings: ProbeSet 11732370_a_at; LIST D

Nc1ncn([C@@H]2O[C@H](CO)[C@@H](O)[C@H]2O)c(=O)n1 [azacitidine]
Fold change vs veh, CUX1: 0.72
